Measurements taken from patent publication US7446091B2, “Methods and preparations for curing clinically ill patients” (Novo Nordisk A/S, priority 2000, dated 2008).
“And” between values parts separate entries of the source, which are not always exact repeats. Equal values may be shown once.

Legend:
[1] = test system: mechanically ventilated, adult patients admitted to the intensive care unit (ICU); assay: Example 2: glycemia control (whole blood glucose); type: in vivo
Experimental: A blood sample was taken upon ICU admission and daily at 06:00 h until discharge from ICU or death. On-admission and daily morning, whole blood glucose level as well as daily maximal and minimal glycemia were analysed. Analyses on the 06:00 h sample also included clinical chemistry, hematology and markers of inflammation.

[2] = test system: patients treated in the ICU; assay: Example 1: prospective clinical study, weekly EMG screening for CIPNP in long-stay ICU patients; type: in vivo, human; conditions: for CIPNP-free time on the ICU: long-stay patients
Experimental: Between Feb. 2 and Apr. 25, 2000, 400 patients were included in the study. […] All other treatments, including feeding regimens, were according to standing orders currently applied within the ICU. Exclusion criteria were age <18y, pregnancy and not being intubated at admission.
When patients were still treated in the ICU after 7 days, a weekly EMG examination was performed to screen for the presence of CIPNP. The EMGs were always interpreted by the same expert in electrophysiology. In order to accurately assess ICU stay, which is often determined by other factors than the patient's condition—e.g. bed availability on the wards—“end of ICU stay” was defined as the day on which the attending physician considers the patient to be “ready for discharge”.

insulin was tested, and the “Mean 06:00 h blood glucose level when on insulin (mmol/L) (mean ± SD)” value ([1]; IIS) was 5.7 ± 1.0 mmol/L, the “Patients who never exceeded 6.1 mmol/L after treatment initiation” value ([1]; IIS) was 48% and the “Patients who occasionally peaked over 8.4 mmol/L” value ([1]; IIS) was 17%. The “Patients with blood glucose levels that failed to go below 6.1 mmol/L within 48 h” value ([1]; IIS) was 0.1%, the “Consequences of hypoglycemia events” value ([1]; IIS and RIS) was “never induced serious symptoms such as hemodynamic deterioration or epilepsia” and the “Mean 06:00 h blood glucose level (mmol/L) (mean ± SD)” value ([1]; IIS, N = 765) was 5.8 ± 1.0 mmol/L and 5.7 ± 1.0 mmol/L. For the same substance, the “Mean 06:00 h blood glucose level when on insulin (mmol/L) (mean ± SD)” value ([1]; RIS) was 9.6 ± 1.8 mmol/L, the “Patients in whom glycemia transiently fell below 2.3 mmol/L, number” value ([1]; RIS) was 6 and the “Mean 06:00 h blood glucose level (mmol/L) (mean ± SD)” value ([1]; RIS, N = 783) was 8.5 ± 1.8 mmol/L. For the same substance, the “Long-stay ICU patients with a positive EMG for CIPNP (% of the long stayers)” value ([2]; intensive insulin group) was 39%, the “Number of positive EMGs for CIPNP per patient (mean ± SD)” value ([2]; intensive insulin group) was 0.9±1.8 and the “Number of positive EMGs for CIPNP per patient (median)” value ([2]; intensive insulin group) was “zero”. The “Long-stay ICU patients with a positive EMG for CIPNP at any time during the ICU stay, number” value ([2]; intensive insulin group, 38 long-stay patients) was “Fifteen”, the “ICU-mortality, difference between the two treatment groups” value ([2]; intensive vs restrictive insulin schedule, P=0.4) was “not detectably different” and the “CIPNP-free time on the ICU” value ([2]; intensive insulin group) was 2.1±1.8 weeks. The “CIPNP-free time on the ICU” value ([2]; restrictive insulin group) was 1.1±1.2 weeks, the “Long-stay ICU patients with a positive EMG for CIPNP (% of the long stayers)” value ([2]; restrictive insulin group) was 67% and the “Number of positive EMGs for CIPNP per patient (mean ± SD)” value ([2]; restrictive insulin group) was 1.8±2.1. The “Number of positive EMGs for CIPNP per patient (median)” value ([2]; restrictive insulin group) was 1 and the “Long-stay ICU patients with a positive EMG for CIPNP at any time during the ICU stay, number” value ([2]; restrictive insulin group, 45 long-stay patients) was 30.
